Several values for one entry are separate records, joined by “and”; a condition that tells them apart may be missing. Equal entries are not always repeated. Where a SMILES comes first, the peptide text is derived from it.
Legend:
[1] = molecular target: T1, Receptor-histidine kinase AgrC (Staphylococcus aureus, UniProt O07911); assay: Effective concentration to antagonise accessory gene regulator C3 of Staphylococcus aureus; assay type: functional
T1 sequence (O07911 whole entry): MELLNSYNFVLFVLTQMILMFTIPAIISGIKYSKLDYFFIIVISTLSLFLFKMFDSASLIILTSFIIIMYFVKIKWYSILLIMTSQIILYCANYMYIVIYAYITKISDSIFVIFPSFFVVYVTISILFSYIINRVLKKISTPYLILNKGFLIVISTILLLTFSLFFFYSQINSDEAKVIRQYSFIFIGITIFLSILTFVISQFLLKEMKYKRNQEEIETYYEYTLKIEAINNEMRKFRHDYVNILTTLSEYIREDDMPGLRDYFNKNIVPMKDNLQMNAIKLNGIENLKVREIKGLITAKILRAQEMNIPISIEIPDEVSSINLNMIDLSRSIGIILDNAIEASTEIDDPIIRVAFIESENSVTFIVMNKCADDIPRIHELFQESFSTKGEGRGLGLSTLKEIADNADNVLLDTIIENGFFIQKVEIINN

[2] = molecular target: T1, Receptor-histidine kinase AgrC; assay: Antagonistic concentration for accessory gene regulator C1 of Staphylococcus aureus; assay type: functional
[3] = molecular target: T1, Receptor-histidine kinase AgrC; assay: Concentration required to antagonise accessory gene regulator C4 of Staphylococcus aureus; assay type: functional
[4] = molecular target: T1, Receptor-histidine kinase AgrC; assay: Concentration required to antagonise accessory gene regulator C2 of Staphylococcus aureus; assay type: functional
[5] = molecular target: T1, Receptor-histidine kinase AgrC; assay: Effective concentration to antagonise accessory gene regulator C1 of Staphylococcus aureus; range = 9-11 uM; assay type: functional
[6] = molecular target: T1, Receptor-histidine kinase AgrC; assay: Concentration required to inhibit quorum sensor of Staphylococcus aureus
[7] = molecular target: T1, Receptor-histidine kinase AgrC; assay: Effective concentration to antagonise accessory gene regulator C2 of Staphylococcus aureus; assay type: functional
[8] = molecular target: T1, Receptor-histidine kinase AgrC; assay: Concentration required to antagonise accessory gene regulator C3 of Staphylococcus aureus; assay type: functional
[9] = molecular target: T1, Receptor-histidine kinase AgrC; assay: Effective concentration to antagonise accessory gene regulator C4 of Staphylococcus aureus; assay type: functional

Compound	IC50 [2] [nM]	IC50 [3] [nM]	IC50 [4] [nM]	IC50 [6]	IC50 [8] [nM]	also measured
H-INCDFLL-OH	70	150	6			EC50 [1]: 26 nM
CC[C@H](C)[C@@H]1NC(=O)[C@H](Cc2ccccc2)NC(=O)[C@H](CC(=O)O)NC(=O)[C@@H](NC(=O)[C@@H](NC(=O)[C@H](CO)NC(=O)[C@@H](N)Cc2ccc(O)cc2)[C@@H](C)O)CSC(=O)[C@H](CCSC)NC1=O (HELM PEPTIDE1{Y.S.T.C.D.F.I.M}$PEPTIDE1,PEPTIDE1,4:R3-8:R2$$$V2.0)						EC50 [5]: 11000 nM
CC[C@H](C)[C@@H]1NC(=O)[C@H](Cc2ccccc2)NC(=O)[C@H](CC(=O)O)NC(=O)[C@@H](NC(C)=O)CSC(=O)[C@H](CCSC)NC1=O (HELM PEPTIDE1{[ac].C.D.F.I.M}$PEPTIDE1,PEPTIDE1,2:R3-6:R2$$$V2.0)				8000 nM		
CC(C)C[C@@H]1NC(=O)[C@H](CO)NC(=O)[C@H](CO)NC(=O)[C@@H](NC(=O)[C@H](C)NC(=O)[C@H](CC(N)=O)NC(=O)[C@@H](NC(=O)CN)C(C)C)CSC(=O)[C@H](Cc2ccccc2)NC1=O [GVNACSSLF] (HELM PEPTIDE1{G.V.N.A.C.S.S.L.F}$PEPTIDE1,PEPTIDE1,5:R3-9:R2$$$V2.0)		86			1	EC50 [7]: 3.6 nM
CC[C@H](C)[C@@H]1NC(=O)[C@H](Cc2ccccc2)NC(=O)[C@H](Cc2ccc(O)cc2)NC(=O)[C@@H](NC(=O)[C@@H](NC(=O)[C@H](CO)NC(=O)[C@@H](N)Cc2ccc(O)cc2)[C@@H](C)O)CSC(=O)[C@H](CCSC)NC1=O [YSTCYFIM] (HELM PEPTIDE1{Y.S.T.C.Y.F.I.M}$PEPTIDE1,PEPTIDE1,4:R3-8:R2$$$V2.0)	7000		4		1	EC50 [9]: 13 nM
CC[C@H](C)[C@@H]1NC(=O)[C@H](Cc2ccccc2)NC(=O)[C@H](C)NC(=O)[C@@H](NC(=O)[C@@H](NC(=O)[C@H](CO)NC(=O)[C@@H](N)Cc2ccc(O)cc2)[C@@H](C)O)CSC(=O)[C@@H](CCSC)NC1=O				256 nM and 30 nM		

Source: ChEMBL document CHEMBL1138741, “Virulence regulation and quorum sensing in staphylococcal infections: competitive AgrC antagonists as quorum sensing inhibitors” (J Med Chem, 2004)
